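Growth conditions: 96-well plates. Treatment: test compound, 48 hours, 5 concentrations. Analysis: linear interpolation between bracketing concentrations; unreached endpoints set to highest concentration. TGI denotes the concentration required for complete inhibition of growth.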
What was measured:
Test in all cases: DTP human tumour cell line panel, 48 h
U251 CNS = tested on: U251 CNS
HL-60(TB) leukemia = tested on: HL-60(TB) leukemia
SF-268 CNS = tested on: SF-268 CNS
MALME-3M melanoma = tested on: MALME-3M melanoma
NCI-H522 lung = tested on: NCI-H522 lung
SNB-19 CNS = tested on: SNB-19 CNS
786-0 renal = tested on: 786-0 renal
SF-295 CNS = tested on: SF-295 CNS
NCI-H226 lung = tested on: NCI-H226 lung
BT-549 breast = tested on: BT-549 breast
MOLT-4 leukemia = tested on: MOLT-4 leukemia
SR leukemia = tested on: SR leukemia
LOX IMVI melanoma = tested on: LOX IMVI melanoma
NCI/ADR-RES ovarian = tested on: NCI/ADR-RES ovarian
ACHN renal = tested on: ACHN renal
HT29 colon = tested on: HT29 colon
MCF7 breast = tested on: MCF7 breast
SK-MEL-28 melanoma = tested on: SK-MEL-28 melanoma
RPMI-8226 leukemia = tested on: RPMI-8226 leukemia
KM12 colon = tested on: KM12 colon
IGROV1 ovarian = tested on: IGROV1 ovarian
MDA-N = tested on: MDA-N
RXF 393 renal = tested on: RXF 393 renal
NCI-H23 lung = tested on: NCI-H23 lung
DU-145 prostate = tested on: DU-145 prostate
HOP-92 NSCLC = tested on: HOP-92 NSCLC
A498 renal = tested on: A498 renal
SK-MEL-5 melanoma = tested on: SK-MEL-5 melanoma
MDA-MB-435 = tested on: MDA-MB-435
HOP-62 NSCLC = tested on: HOP-62 NSCLC
SK-OV-3 ovarian = tested on: SK-OV-3 ovarian
HS 578T breast = tested on: HS 578T breast
CAKI-1 renal = tested on: CAKI-1 renal
K-562 leukemia = tested on: K-562 leukemia
PC-3 prostate = tested on: PC-3 prostate
OVCAR-5 ovarian = tested on: OVCAR-5 ovarian
HCT-116 colon = tested on: HCT-116 colon
EKVX NSCLC = tested on: EKVX NSCLC
UACC-257 melanoma = tested on: UACC-257 melanoma
HCT-15 colon = tested on: HCT-15 colon
A549 NSCLC = tested on: A549 NSCLC
SN12C renal = tested on: SN12C renal
HCC-2998 colon = tested on: HCC-2998 colon
MDA-MB-231 breast = tested on: MDA-MB-231 breast
M14 melanoma = tested on: M14 melanoma
TK-10 renal = tested on: TK-10 renal
CCRF-CEM leukemia = tested on: CCRF-CEM leukemia
UO-31 renal = tested on: UO-31 renal
NCI-H460 lung = tested on: NCI-H460 lung
SW-620 colon = tested on: SW-620 colon
SK-MEL-2 melanoma = tested on: SK-MEL-2 melanoma
OVCAR-4 ovarian = tested on: OVCAR-4 ovarian
T-47D breast = tested on: T-47D breast
COLO 205 colon = tested on: COLO 205 colon
OVCAR-3 ovarian = tested on: OVCAR-3 ovarian
OVCAR-8 ovarian = tested on: OVCAR-8 ovarian
SF-539 CNS = tested on: SF-539 CNS
UACC-62 melanoma = tested on: UACC-62 melanoma

COC(=O)c1c(O)ccc2c1c1c(n2CCc2ccccc2)C(=O)c2ccccc2C1=O
TGI (U251 CNS): 26.8 µM | TGI (HL-60(TB) leukemia): 37.9 µM | TGI (SF-268 CNS): 28.8 µM | TGI (MALME-3M melanoma): 29.6 µM | TGI (NCI-H522 lung): 22.7 µM | TGI (SNB-19 CNS): 32.8 µM | TGI (786-0 renal): 31 µM | TGI (SF-295 CNS): 36.2 µM | TGI (NCI-H226 lung): 34.1 µM | TGI (BT-549 breast): 29.6 µM | TGI (MOLT-4 leukemia): 17.3 µM | TGI (SR leukemia): 22.7 µM | TGI (LOX IMVI melanoma): 38.4 µM | TGI (NCI/ADR-RES ovarian): 23.6 µM | TGI (ACHN renal): 24.5 µM | TGI (HT29 colon): 27.1 µM | TGI (MCF7 breast): 30.2 µM | TGI (SK-MEL-28 melanoma): 30 µM | TGI (RPMI-8226 leukemia): 32.1 µM | TGI (KM12 colon): 26.4 µM | TGI (IGROV1 ovarian): 24.9 µM | TGI (MDA-N): 24.8 µM | TGI (RXF 393 renal): 34.9 µM | TGI (NCI-H23 lung): 25.6 µM | TGI (DU-145 prostate): 40.7 µM | TGI (HOP-92 NSCLC): 31.4 µM | TGI (A498 renal): 31.5 µM | TGI (SK-MEL-5 melanoma): 25.3 µM | TGI (MDA-MB-435): 20.6 µM | TGI (HOP-62 NSCLC): 36.6 µM | TGI (SK-OV-3 ovarian): 32.3 µM | TGI (HS 578T breast): 36.4 µM | TGI (CAKI-1 renal): 27.5 µM | TGI (K-562 leukemia): 25.8 µM | TGI (PC-3 prostate): 25.4 µM | TGI (OVCAR-5 ovarian): 37.7 µM | TGI (HCT-116 colon): 23.3 µM | TGI (EKVX NSCLC): 36.5 µM | TGI (UACC-257 melanoma): 32.3 µM | TGI (HCT-15 colon): 24.9 µM | TGI (A549 NSCLC): 22.6 µM | TGI (SN12C renal): 24.9 µM | TGI (HCC-2998 colon): 4.96 µM | TGI (MDA-MB-231 breast): 29.7 µM | TGI (M14 melanoma): 30.3 µM | TGI (TK-10 renal): 24.1 µM | TGI (CCRF-CEM leukemia): 50.8 µM | TGI (UO-31 renal): 23.1 µM | TGI (NCI-H460 lung): 18 µM | TGI (SW-620 colon): 30.3 µM | TGI (SK-MEL-2 melanoma): 29.8 µM | TGI (OVCAR-4 ovarian): 20.7 µM | TGI (T-47D breast): 20.8 µM | TGI (COLO 205 colon): 3.24 µM | TGI (OVCAR-3 ovarian): 19.9 µM | TGI (OVCAR-8 ovarian): 22.1 µM | TGI (SF-539 CNS): 30.8 µM

O=C(CCc1ccc(O)cc1)NCCc1cccc(O)c1
TGI (U251 CNS): > 50 µM | TGI (HL-60(TB) leukemia): > 50 µM | TGI (SF-268 CNS): > 50 µM | TGI (MALME-3M melanoma): > 50 µM | TGI (NCI-H522 lung): > 50 µM | TGI (SNB-19 CNS): > 50 µM | TGI (786-0 renal): > 50 µM | TGI (SF-295 CNS): > 50 µM | TGI (BT-549 breast): > 50 µM | TGI (MOLT-4 leukemia): > 50 µM | TGI (SR leukemia): > 50 µM | TGI (LOX IMVI melanoma): > 50 µM | TGI (NCI/ADR-RES ovarian): > 50 µM | TGI (ACHN renal): > 50 µM | TGI (HT29 colon): > 50 µM | TGI (MCF7 breast): > 50 µM | TGI (SK-MEL-28 melanoma): > 50 µM | TGI (UACC-62 melanoma): > 50 µM | TGI (KM12 colon): > 50 µM | TGI (IGROV1 ovarian): > 50 µM | TGI (MDA-N): > 50 µM | TGI (RXF 393 renal): > 50 µM | TGI (NCI-H23 lung): > 50 µM | TGI (DU-145 prostate): > 50 µM | TGI (HOP-92 NSCLC): > 50 µM | TGI (A498 renal): > 50 µM | TGI (SK-MEL-5 melanoma): > 50 µM | TGI (MDA-MB-435): > 50 µM | TGI (HOP-62 NSCLC): > 50 µM | TGI (SK-OV-3 ovarian): > 50 µM | TGI (HS 578T breast): > 50 µM | TGI (CAKI-1 renal): > 50 µM | TGI (K-562 leukemia): > 50 µM | TGI (PC-3 prostate): > 50 µM | TGI (OVCAR-5 ovarian): > 50 µM | TGI (HCT-116 colon): > 50 µM | TGI (EKVX NSCLC): > 50 µM | TGI (UACC-257 melanoma): > 50 µM | TGI (HCT-15 colon): > 50 µM | TGI (A549 NSCLC): > 50 µM | TGI (SN12C renal): > 50 µM | TGI (MDA-MB-231 breast): > 50 µM | TGI (M14 melanoma): > 50 µM | TGI (TK-10 renal): > 50 µM | TGI (CCRF-CEM leukemia): > 50 µM | TGI (UO-31 renal): > 50 µM | TGI (NCI-H460 lung): > 50 µM | TGI (SK-MEL-2 melanoma): > 50 µM | TGI (OVCAR-4 ovarian): > 50 µM | TGI (T-47D breast): > 50 µM | TGI (COLO 205 colon): > 50 µM | TGI (OVCAR-3 ovarian): > 50 µM | TGI (OVCAR-8 ovarian): > 50 µM | TGI (SF-539 CNS): > 50 µM
